US9926281B2 (priority 2014, dated 2018)

Tests used:
human ADAMTS-5 = human ADAMTS-5 (Homo sapiens (Human), UniProt Q9UNA0); conditions: read-out: hADAMTS-5 potency IC50
Protocol: Finally, the fluorescence is read on the Envision (Perkin Elmer) after an incubation of 90 min at 37° C.

human MMP13 = human MMP13 (Homo sapiens (Human), UniProt P45452); conditions: read-out: hMMP-13 potency IC50
Protocol: Human MMP13 is preactivated by incubated the enzyme in the same buffer complemented with 1 mM freshly prepared p-Aminophenylmercuric acetate (AMPA) for 1 hour at 37° C.

rnADAMTS-5 (1-564-6H) = rnADAMTS-5 (1-564-6H) (Rattus norvegicus, UniProt Q6TY19); conditions: read-out: Rat ADAMTS-5 potency IC50
human TACE = human TACE (Homo sapiens (Human), UniProt P78536); conditions: read-out: TACE potency IC50
Chain of human TACE (P78536 whole entry, looked up, change not shown): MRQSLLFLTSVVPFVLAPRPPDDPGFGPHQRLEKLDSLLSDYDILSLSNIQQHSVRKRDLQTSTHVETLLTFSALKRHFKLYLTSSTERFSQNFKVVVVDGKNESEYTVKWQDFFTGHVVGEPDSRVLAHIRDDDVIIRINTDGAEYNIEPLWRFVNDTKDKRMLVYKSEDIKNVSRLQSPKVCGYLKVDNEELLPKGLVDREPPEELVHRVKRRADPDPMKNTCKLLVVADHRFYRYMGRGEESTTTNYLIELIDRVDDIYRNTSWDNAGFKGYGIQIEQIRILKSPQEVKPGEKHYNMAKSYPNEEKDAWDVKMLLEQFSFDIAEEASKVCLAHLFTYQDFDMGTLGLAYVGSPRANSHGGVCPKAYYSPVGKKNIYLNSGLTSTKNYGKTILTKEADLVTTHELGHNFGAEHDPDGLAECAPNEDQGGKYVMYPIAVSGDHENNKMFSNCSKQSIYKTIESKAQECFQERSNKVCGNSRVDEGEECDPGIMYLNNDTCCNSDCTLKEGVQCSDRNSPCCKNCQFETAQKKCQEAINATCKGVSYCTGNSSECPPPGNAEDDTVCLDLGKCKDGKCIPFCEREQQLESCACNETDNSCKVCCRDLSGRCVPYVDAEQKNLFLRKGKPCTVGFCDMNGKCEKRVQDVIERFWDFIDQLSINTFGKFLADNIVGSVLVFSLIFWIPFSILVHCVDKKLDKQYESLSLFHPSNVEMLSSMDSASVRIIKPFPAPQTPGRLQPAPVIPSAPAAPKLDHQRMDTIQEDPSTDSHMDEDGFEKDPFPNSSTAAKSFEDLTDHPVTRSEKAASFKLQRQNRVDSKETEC

Chain of human ADAMTS-5 (Q9UNA0 262-930): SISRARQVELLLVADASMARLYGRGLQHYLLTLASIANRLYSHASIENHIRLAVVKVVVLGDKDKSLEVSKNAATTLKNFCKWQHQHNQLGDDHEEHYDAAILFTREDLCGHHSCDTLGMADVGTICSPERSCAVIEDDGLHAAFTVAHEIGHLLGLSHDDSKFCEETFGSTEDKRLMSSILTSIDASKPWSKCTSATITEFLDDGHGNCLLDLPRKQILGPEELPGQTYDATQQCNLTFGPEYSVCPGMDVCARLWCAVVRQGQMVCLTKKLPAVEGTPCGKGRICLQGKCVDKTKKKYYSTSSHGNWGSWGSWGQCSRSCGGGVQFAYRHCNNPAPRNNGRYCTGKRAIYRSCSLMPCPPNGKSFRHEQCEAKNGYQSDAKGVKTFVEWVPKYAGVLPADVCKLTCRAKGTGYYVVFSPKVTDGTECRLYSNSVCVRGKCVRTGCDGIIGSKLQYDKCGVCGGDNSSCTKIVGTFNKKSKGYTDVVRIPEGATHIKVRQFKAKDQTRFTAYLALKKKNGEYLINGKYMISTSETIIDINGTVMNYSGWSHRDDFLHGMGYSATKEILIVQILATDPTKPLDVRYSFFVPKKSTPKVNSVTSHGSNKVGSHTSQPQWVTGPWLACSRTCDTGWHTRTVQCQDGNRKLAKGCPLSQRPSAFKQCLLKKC

Row | SMILES | IC50 (human ADAMTS-5) | IC50 (human MMP13) | IC50 (rnADAMTS-5 (1-564-6H)) | IC50 (human TACE)
1 | C[C@H]1CN(C(=O)CCC2(C3CC3)NC(=O)NC2=O)CCN1c1ccc(Cl)c(Cl)c1 (stereo partly drawn) [compound 167, 5-cyclopropyl-5-[3-[(3S)-4-(3,4-dichlorophenyl)-3-methyl-piperazin-1-yl]-3-oxo-propyl]imidazolidine-2,4-dione] | 19 nM | > 4000 nM | 10 nM | > 4000 nM
2 | CSCCC1(CC(C)C(=O)N2CCN(c3cc(Cl)cc(Cl)c3)CC2)NC(=O)NC1=O (centres unmarked) [compound 197, 5-[3-[4-(3,5-dichlorophenyl)piperazin-1-yl]-2-methyl-3-oxo-propyl]-5-(2-methylsulfanylethyl)imidazolidine-2,4-dione] | 26 nM | > 4000 nM | 21 nM | 134 nM
3 | C[C@H]1CN(C(=O)CCC2(C3CC3)NC(=O)NC2=O)CCN1c1ccc(Cl)c(F)c1 (stereo partly drawn) [compound 162, 5-[3-[(3S)-4-(4-chloro-3-fluoro-phenyl)-3-methyl-piperazin-1-yl]-3-oxo-propyl]-5-cyclopropyl-imidazolidine-2,4-dione] | 39 nM | > 4000 nM | 45 nM | > 20000 nM
4 | COCCNC(=O)CC1(CCC(=O)N2CCN(c3cc(Cl)cc(Cl)c3)CC2)NC(=O)NC1=O (centres unmarked) [compound 187, 2-[4-[3-[4-(3,5-dichlorophenyl)piperazin-1-yl]-3-oxo-propyl]-2,5-dioxo-imidazolidin-4-yl]-N-(2-methoxyethyl)acetamide] | 456 nM | 2610 nM | 396 nM | > 20000 nM
5 | COC(CC1(C2CC2)NC(=O)NC1=O)C(=O)N1CCN(c2cc(Cl)cc(Cl)c2)CC1 (centres unmarked) [compound 206, 5-cyclopropyl-5-[3-[4-(3,5-dichlorophenyl)piperazin-1-yl]-2-methoxy-3-oxo-propyl]imidazolidine-2,4-dione] | 60 nM | > 4000 nM | 40 nM | > 4000 nM
6 | C[C@H]1CN(C(=O)CCC2(C)NC(=O)NC2=O)CCN1c1cc(F)cc(Cl)c1 (stereo partly drawn) [compound 170, 5-[3-[(3S)-4-(3-chloro-5-fluoro-phenyl)-3-methyl-piperazin-1-yl]-3-oxo-propyl]-5-methyl-imidazolidine-2,4-dione] | 170 nM | > 20000 nM | 244 nM | 
7 | C[C@H]1CN(C(=O)CCC2(C)NC(=O)NC2=O)CCN1c1cccc(F)c1 (stereo partly drawn) [compound 157, 5-[3-[(3S)-4-(3-fluorophenyl)-3-methyl-piperazin-1-yl]-3-oxo-propyl]-5-methyl-imidazolidine-2,4-dione] |  | > 20000 nM | 284 nM | > 20000 nM
8 | CC(C)C1(CCC(=O)N2CCN(c3cccc(Cl)c3)CC2)NC(=O)NC1=O (centres unmarked) [compound 53, 5-[3-[4-(3-chlorophenyl)piperazin-1-yl]-3-oxo-propyl]-5-isopropyl-imidazolidine-2,4-dione] |  | > 20000 nM | 179 nM | > 4000 nM
9 | C[C@H]1CN(C(=O)CCC2(C3CC3)NC(=O)NC2=O)CCN1c1ccc(Cl)cc1 (stereo partly drawn) [compound 147, 5-[3-[(3S)-4-(4-chlorophenyl)-3-methyl-piperazin-1-yl]-3-oxo-propyl]-5-cyclopropyl-imidazolidine-2,4-dione] |  | > 4000 nM | 99 nM | > 4000 nM
10 | Cc1c(F)cccc1N1CCN(C(=O)CCC2(C3CC3)NC(=O)NC2=O)CC1 (centres unmarked) [compound 99, 5-cyclopropyl-5-[3-[4-(3-fluoro-2-methyl-phenyl)piperazin-1-yl]-3-oxo-propyl]imidazolidine-2,4-dione] |  | > 20000 nM | 116 nM | > 14700 nM
11 | CC(CC1NC(=O)NC1=O)C(=O)N1CCN(c2cc(Cl)cc(Cl)c2)CC1 (centres unmarked) [compound 219, 5-[3-[4-(3,5-dichlorophenyl)piperazin-1-yl]-2-methyl-3-oxo-propyl]imidazolidine-2,4-dione] | 41 nM | > 4000 nM | 29 nM | 
12 | C[C@H]1CN(C(=O)CCC2(C3CC3)NC(=O)NC2=O)CCN1c1ccccc1 (stereo partly drawn) [compound 135, 5-cyclopropyl-5-[3-[(3S)-3-methyl-4-phenyl-piperazin-1-yl]-3-oxo-propyl]imidazolidine-2,4-dione] |  | > 20000 nM | 125 nM | > 20000 nM
13 | O=C1NC(=O)C(CCC(=O)N2CCN(c3cccc(Cl)c3)CC2)(C2CC2)N1 (centres unmarked) [compound 34, 5-[3-[4-(3-chlorophenyl)piperazin-1-yl]-3-oxo-propyl]-5-cyclopropyl-imidazolidine-2,4-dione] |  | 3210 nM | 41 nM | > 4000 nM
14 | C[C@H]1CN(C(=O)CCC2(C3CC3)NC(=O)NC2=O)CCN1c1cc(F)cc(F)c1 (stereo partly drawn) [compound 160, 5-cyclopropyl-5-[3-[(3S)-4-(3,5-difluorophenyl)-3-methyl-piperazin-1-yl]-3-oxo-propyl]imidazolidine-2,4-dione] |  | > 20000 nM | 36 nM | > 20000 nM
15 | C[C@H]1CN(C(=O)CCC2(C3CC3)NC(=O)NC2=O)CCN1c1cccc(F)c1 (stereo partly drawn) [compound 151, 5-cyclopropyl-5-[3-[(3S)-4-(3-fluorophenyl)-3-methyl-piperazin-1-yl]-3-oxo-propyl]imidazolidine-2,4-dione] |  | > 20000 nM | 83 nM | > 20000 nM
16 | Cc1c(Cl)cccc1N1CCN(C(=O)CCC2(C3CC3)NC(=O)NC2=O)CC1 (centres unmarked) [compound 98, 5-[3-[4-(3-chloro-2-methyl-phenyl)piperazin-1-yl]-3-oxo-propyl]-5-cyclopropyl-imidazolidine-2,4-dione] |  | > 20000 nM | 82 nM | > 4000 nM
17 | O=C1NC(=O)C(CCC(=O)N2CCN(c3cccc(F)c3)CC2)(C2CC2)N1 (centres unmarked) [compound 115, 5-cyclopropyl-5-[3-[4-(3-fluorophenyl)piperazin-1-yl]-3-oxo-propyl]imidazolidine-2,4-dione] |  | > 4000 nM | 38 nM | > 20000 nM
18 | Cc1c(Cl)cccc1N1CCN(C(=O)CCC2(c3cccnc3)NC(=O)NC2=O)CC1 (centres unmarked) [compound 102, 5-[3-[4-(3-chloro-2-methyl-phenyl)piperazin-1-yl]-3-oxo-propyl]-5-(3-pyridyl)imidazolidine-2,4-dione] |  | > 20000 nM | 94 nM | 3400 nM
19 | O=C1Cc2cc(C3(CCC(=O)N4CCN(c5cccc(Cl)c5)CC4)NC(=O)NC3=O)ccc2N1 (centres unmarked) [compound 153, 5-[3-[4-(3-chlorophenyl)piperazin-1-yl]-3-oxo-propyl]-5-(2-oxoindolin-5-yl)imidazolidine-2,4-dione] |  | > 4000 nM | 114 nM | 2270 nM
20 | C[C@H]1CN(C(=O)CCC2(C3CC3)NC(=O)NC2=O)CCN1c1cccc(Cl)c1 (stereo partly drawn) [compound 152, 5-[3-[(3S)-4-(3-chlorophenyl)-3-methyl-piperazin-1-yl]-3-oxo-propyl]-5-cyclopropyl-imidazolidine-2,4-dione] |  | > 20000 nM | 62 nM | > 20000 nM
21 | Cc1ccc(F)cc1N1CCN(C(=O)CCC2(C)NC(=O)NC2=O)C[C@@H]1C (stereo partly drawn) [compound 145, 5-[3-[(3S)-4-(5-fluoro-2-methyl-phenyl)-3-methyl-piperazin-1-yl]-3-oxo-propyl]-5-methyl-imidazolidine-2,4-dione] |  | > 20000 nM | 563 nM | > 4000 nM
22 | C[C@]1(CCC(=O)N2CCN(c3cc(Cl)cc(Cl)c3)CC2)NC(=O)NC1=O [compound 159, (5R)-5-[3-[4-(3,5-dichlorophenyl)piperazin-1-yl]-3-oxo-propyl]-5-methyl-imidazolidine-2,4-dione] |  | > 20000 nM | 127 nM | 1870 nM
23 | CC(CC1NC(=O)NC1=O)C(=O)N1CCN(c2cc(Cl)cc(Cl)c2)CC1 (centres unmarked) [compound 200, 5-[3-[4-(3,5-dichlorophenyl)piperazin-1-yl]-2-methyl-3-oxo-propyl]imidazolidine-2,4-dione] | 109 nM | > 20000 nM | 135 nM | 
24 | C[C@H]1CN(C(=O)CCC2(c3cccnc3)NC(=O)NC2=O)CCN1c1ccccc1 (stereo partly drawn) [compound 136, 5-[3-[(3S)-3-methyl-4-phenyl-piperazin-1-yl]-3-oxo-propyl]-5-(3-pyridyl)imidazolidine-2,4-dione] |  | > 20000 nM | 242 nM | > 20000 nM
25 | Cc1ccc(F)cc1N1CCN(C(=O)CCC2(C3CC3)NC(=O)NC2=O)C[C@@H]1C (stereo partly drawn) [compound 148, 5-cyclopropyl-5-[3-[(3S)-4-(5-fluoro-2-methyl-phenyl)-3-methyl-piperazin-1-yl]-3-oxo-propyl]imidazolidine-2,4-dione] |  | > 20000 nM | 97 nM | > 4000 nM
26 | C[C@H]1CN(C(=O)CCC2(C3CC3)NC(=O)NC2=O)CCN1c1cc(Cl)cc(Cl)c1 (stereo partly drawn) [compound 142, 5-cyclopropyl-5-[3-[(3S)-4-(3,5-dichlorophenyl)-3-methyl-piperazin-1-yl]-3-oxo-propyl]imidazolidine-2,4-dione] |  | > 20000 nM | 54 nM | > 4000 nM
27 | Cc1ccc(Cl)cc1N1CCN(C(=O)CCC2(c3ccc(Cl)cc3)NC(=O)NC2=O)CC1 (centres unmarked) [compound 75, 5-[3-[4-(5-chloro-2-methyl-phenyl)piperazin-1-yl]-3-oxo-propyl]-5-(4-chlorophenyl)imidazolidine-2,4-dione] |  | > 20000 nM | 141 nM | 550 nM
28 | COCCN(C)CC1(CCC(=O)N2CCN(c3cccc(Cl)c3)CC2)NC(=O)NC1=O (centres unmarked) [compound 154, 5-[3-[4-(3-chlorophenyl)piperazin-1-yl]-3-oxo-propyl]-5-[[2-methoxyethyl(methyl)amino]methyl]imidazolidine-2,4-dione] |  | > 4000 nM | 507 nM | > 20000 nM
29 | O=C1NC(=O)C(CCC(=O)N2CCN(c3cccc(F)c3)CC2)(c2cccnc2)N1 (centres unmarked) [compound 112, 5-[3-[4-(3-fluorophenyl)piperazin-1-yl]-3-oxo-propyl]-5-(3-pyridyl)imidazolidine-2,4-dione] |  | 1880 nM | 39 nM | > 4000 nM
